Test results taken from ChEMBL document CHEMBL1131991, “Discovery of CP-199,330 and CP-199,331: two potent and orally efficacious cysteinyl LT1 receptor antagonists devoid of liver toxicity” (Bioorg Med Chem Lett, 1999).

Columns and labels:
Cavia porcellus [1] = test: Compound was evaluated in vivo for antigen induced airway obstruction in guinea pig (OA) at 2.0 hour after oral administration.; assay type: functional
Cavia porcellus [2] = test: Compound was evaluated in vivo for cysLT1 receptor induced airway obstruction in guinea pig (OA) at 2.0 hour after oral administration.; assay type: functional
U-937 = test: In vitro blocking of extracellular calcium mobilization in human U937 cells; assay type: functional, cell-based
Cavia porcellus [3] = test: Compound was evaluated in vivo for cysLT1 receptor induced airway obstruction in guinea pig (OA) at 1.0 hour after oral administration.; assay type: functional
Rattus norvegicus = species on record: Rattus norvegicus; test: Compound was evaluated for Hepatic clearance in rat; assay type: ADME, organism-based, Liver; details: in vivo
[4] = Compound was evaluated for terminal half life in monkey; assay type: ADME; details: cercopithecidae, in vivo
[5] = Oral bioavailability in monkey; assay type: ADME, organism-based; details: cercopithecidae, in vivo
[6] = Compound was evaluated for Hepatic clearance in monkey; assay type: ADME, organism-based, Liver; details: cercopithecidae, in vivo
[7] = target: T1, Cysteinyl leukotriene receptor 1 (Cavia porcellus, UniProt Q2NNR5); test: In vitro binding of Cysteinyl leukotriene receptor 1 to guinea pig lung membranes; assay type: tissue-based, Membrane
T1 sequence (Q2NNR5 whole entry): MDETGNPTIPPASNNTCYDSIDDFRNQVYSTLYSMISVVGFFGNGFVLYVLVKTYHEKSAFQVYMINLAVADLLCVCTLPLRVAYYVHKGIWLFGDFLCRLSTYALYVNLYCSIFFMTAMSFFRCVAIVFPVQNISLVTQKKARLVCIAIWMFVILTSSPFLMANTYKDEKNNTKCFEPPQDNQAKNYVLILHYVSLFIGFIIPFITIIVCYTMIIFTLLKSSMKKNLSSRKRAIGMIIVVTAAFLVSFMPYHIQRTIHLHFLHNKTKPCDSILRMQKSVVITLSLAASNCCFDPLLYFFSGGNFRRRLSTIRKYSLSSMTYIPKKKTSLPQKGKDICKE

[8] = Oral bioavailability in rat; assay type: ADME, organism-based; details: in vivo
Cavia porcellus [9] = test: Compound was evaluated in vivo for antigen induced airway obstruction in guinea pig (OA) at 1.0 hour after oral administration; assay type: functional
[10] = Compound was evaluated for terminal half life in rat; assay type: ADME, organism-based; details: in vivo
Cavia porcellus [11] = test: Compound was evaluated in vivo for cysLT1 receptor induced airway obstruction in guinea pig (OA) at 1.0 hour after oral administration; assay type: functional

With `COc1cc(C(=O)NS(=O)(=O)c2ccccc2C)ccc1Cc1cn(C)c2ccc(NC(=O)OC3CCCC3)cc12` [ZAFIRLUKAST] the ED50 (Cavia porcellus [1]) was 0.9 mg/kg and the ED50 (Cavia porcellus [2]) was 0.52 mg/kg.
With `COc1ccc(NS(=O)(=O)C(F)(F)F)cc1C[C@@H]1COc2ccc(OCc3nc4cc(F)c(F)cc4s3)cc2[C@@H]1O` the IC50 (U-937) was 300 pM, the ED50 (Cavia porcellus [3]) was 0.08 mg/kg and the Clp (Rattus norvegicus) was 8.3 mL/min/kg. It also gave a half-life [4] of 9.4 h, a bioavailability [5] of 72% and a Clp [6] of 4.2 mL/min/kg. It also gave a Ki [7] of 400 pM, a bioavailability [8] of 46% and an ED50 (Cavia porcellus [9]) of 0.52 mg/kg. It also gave a half-life [10] of 8.8 h.
`COc1ccc(NS(=O)(=O)C(F)(F)F)cc1C[C@@H]1COc2ccc(OCc3ccc4ccc(Cl)cc4n3)cc2[C@@H]1O` gave an IC50 (U-937) of 700 pM, an ED50 (Cavia porcellus [11]) of 0.12 mg/kg and a Clp (Rattus norvegicus) of 8.9 mL/min/kg. For the same compound, the half-life [4] was 2.1 h, the bioavailability [5] was 100% and the Clp [6] was 6.5 mL/min/kg. It also gave a Ki [7] of 600 pM, a bioavailability [8] of 53% and an ED50 (Cavia porcellus [9]) of 0.46 mg/kg. The half-life [10] was 0.8 h.
`O=C(Nc1cccc2c(=O)cc(-c3nnn[nH]3)oc12)c1ccc(OCCCCc2ccccc2)cc1` gave an ED50 (Cavia porcellus [9]) of 1.5 mg/kg.
